In assay [1] the target is T1, MtSHMT3 (chloroplastic serine hydroxymethyltransferase) (Medicago truncatula, UniProt G7ILW0).
T1 construct: gene MTR_2g018290; residues 82-533, targeting peptide removed (N-truncated at F82, begins FLDYGLSEA); His6-TEV tag cut, Ser-Asn-Ala linker left; E. coli BL21 Gold, pMCSG68; homotetramer, ~197 kDa theoretical; active site shared within tight dimer
Description: X-ray crystallography, […] A. The assay is classed as binding.

Assay [2] concerns the target T1, MtSHMT3 (chloroplastic serine hydroxymethyltransferase). Description: X-ray crystallography, […] A. The assay is classed as binding. As to conditions: covalent; internal aldimine (Schiff base) with K318; full occupancy in chains A and B; crystals from 55% Tacsimate pH 7.0; PLP from expression culture.
In assay [3] the target is chloroplast-targeted serine hydroxymethyltransferase from Medicago truncatula (MtSHMT3), residues 82-533 (Medicago truncatula). Kind of assay: crystal structure; three non-isomorphous crystal forms (holo/apo in Tacsimate pH 7.0; Ser-soaked in MES pH 6.5, PEG 3350, ammonium acetate; selenourea-soaked); assemblies analysed with PISA.
Assay [4] has the same target. Kind of assay: SEC; HiLoad Superdex 200 16/60; 25 mM Hepes-NaOH pH 7.5, 100 mM KCl, 50 mM NaCl, 1 mM TCEP; standard curve from thyroglobulin, gamma-globulin, ovalbumin and myoglobin. In general terms: SEC sorts molecules by how far they enter the pores of the column.

The text below walks through data of paper PMC5958214, “Chloroplastic Serine Hydroxymethyltransferase From Medicago truncatula: A Structural Characterization” (Frontiers in Plant Science, 2018).

T1 sequence (G7ILW0 entry or part of it): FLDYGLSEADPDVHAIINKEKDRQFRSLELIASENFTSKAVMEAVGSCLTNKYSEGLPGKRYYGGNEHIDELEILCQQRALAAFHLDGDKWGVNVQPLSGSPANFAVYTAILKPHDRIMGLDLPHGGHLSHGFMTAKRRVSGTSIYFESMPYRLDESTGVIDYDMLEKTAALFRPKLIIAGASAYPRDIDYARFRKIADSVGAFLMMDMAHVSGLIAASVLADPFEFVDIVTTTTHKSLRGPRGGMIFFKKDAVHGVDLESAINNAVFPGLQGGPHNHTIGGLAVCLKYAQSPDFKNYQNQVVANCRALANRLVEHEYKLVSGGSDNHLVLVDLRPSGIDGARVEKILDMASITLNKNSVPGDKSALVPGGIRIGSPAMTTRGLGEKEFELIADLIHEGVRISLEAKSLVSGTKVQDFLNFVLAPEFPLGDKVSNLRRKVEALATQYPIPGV

In the case of `NCC(=O)O` [Gly, glycine], the “X-ray crystallography, 1.91 A” value in assay [1] (Ser-soaked crystal, covalent PLP-Gly external aldimine in chains B and F, free Gly with PLP internal aldimine in chains E and H, no tetrahydrofolate) is “PLP-Gly external aldimine (chains B and F), and PLP internal aldimine with free Gly”. Regarding `Cc1ncc(COP(=O)(O)O)c(C=O)c1O` [PLP, pyridoxal 5′-phosphate], in assay [2], the “X-ray crystallography, 1.74 A” value was “two protein chains (A and B) contain the PLP bound as a Schiff base internal aldimine”. On to `N[C@@H](CO)C(=O)O` [Ser, L-serine], for which the “X-ray crystallography, 1.91 A” value in assay [1] (covalent, PLP-Ser external aldimine in chains A and D, crystals soaked with 200 mM Ser for 2 h, pH 6.5, no tetrahydrofolate) is “PLP-Ser external aldimine (chains A and D)”. Take “chloroplast-targeted serine hydroxymethyltransferase from Medicago truncatula (MtSHMT3), residues 82-533 (enzyme)”: the stoichiometry N in assay [3] and in assay [4] was 4 throughout.
